{"source": "paper PMC7083565", "about": "“In vitro metabolism, reaction phenotyping, enzyme kinetics, CYP inhibition and induction potential of ataluren” (Pharmacology Research & Perspectives, 2020)", "format_in_all_cases": "in vitro ADME", "key": {"[1]": {"test_system": "CYP2C8", "experiment": "CYP induction in primary human hepatocytes: CYP2C8", "conditions": "male, 48 h", "description": "Human hepatocytes isolated from three Caucasian males were transferred to 48‐well collagen‐coated plates at 0.14 × 10^6 cells/well in planting media for attachment. After attachment, planting media was replaced with sandwich media and the cells were incubated until clusters were established. […] The incubation solutions were aspirated and replaced with freshly prepared incubation solutions containing ataluren for an additional 24 hours. […] The incubation solutions were then aspirated and 150 µL of K‐H buffer containing CYP substrates were added. […] Metabolite formation in incubations with test compounds and control inhibitors was assessed with validated LC‐MS/MS methods for each of the reaction products as described in Table S2. Enzymatic activity for each CYP was calculated using the absolute amount of metabolite formed (pmol) divided by hepatocytes in the incubation (million cells) and the incubation time (minute). The relative fold induction in enzymatic activity was calculated by comparing the rate of metabolite formation for treatment groups to that of the solvent control group (reported as vehicle control%) or positive control group (reported as positive control%)."}, "[2]": {"test_system": "CYP2B6", "experiment": "CYP induction in primary human hepatocytes: CYP2B6", "conditions": "Bupropion-hydroxylase, 48 hours, n=3", "description": "Human hepatocytes isolated from three Caucasian males were transferred to 48‐well collagen‐coated plates at 0.14 × 10^6 cells/well in planting media for attachment. After attachment, planting media was replaced with sandwich media and the cells were incubated until clusters were established. […] The incubation solutions were aspirated and replaced with freshly prepared incubation solutions containing ataluren for an additional 24 hours. […] The incubation solutions were then aspirated and 150 µL of K‐H buffer containing CYP substrates were added. The hepatocytes were incubated for 30 minutes for CYP2C8 (10 µmol/L amodiaquine), 1 hour for CYP3A4 (125 µmol/L testosterone), and 4 hours for CYPs 1A2 (100 µmol/L phenacetin), 2A6 (100 µmol/L coumarin), 2B6 (150 µmol/L bupropion), 2C9 (50 µmol/L tolbutamide), 2C19 (100 µmol/L S‐mephenytoin), and 2E1 (300 µmol/L chlorzoxazone) activity assays. The reactions were stopped by the addition of 0.15 mL of ice‐cold methanol except that coumarin‐treated cells were incubated with β‐glucuronidase and aryl sulfatase for additional 1 hour to free 7‐hydroxycoumarin before the addition of 0.2 mL of ice‐cold methanol. Metabolite formation in incubations with test compounds and control inhibitors was assessed with validated LC‐MS/MS methods for each of the reaction products as described in Table S2. Enzymatic activity for each CYP was calculated using the absolute amount of metabolite formed (pmol) divided by hepatocytes in the incubation (million cells) and the incubation time (minute). The relative fold induction in enzymatic activity was calculated by comparing the rate of metabolite formation for treatment groups to that of the solvent control group (reported as vehicle control%) or positive control group (reported as positive control%)."}, "[3]": {"experiment": "Ataluren glucuronidation kinetics, human liver microsomes", "conditions": "for CLint,u,UGT (scaled) / K m / K m, u / V max: HLM; for CLint,u,UGT (scaled): 40.0 mg protein/g tissue; for K m / K m, u / V max: mean ± SE; for K m / K m, u / V max / fraction unbound at 15 min: n = 3; for fraction unbound at 15 min: human, pooled human liver microsomes incubation mixture, pH 7.5, HLM, mean ± SD, read-out: fu,inc", "description": "(§1) Ataluren at 0.5, 2.5, 12.5, 25, 50, 100, 200, and 400 µmol/L, was incubated (n = 3) at 37°C with recombinant human UGT1A9 and with pooled microsomes from human liver, kidney, and intestine (0.025 mg protein/mL, preactivated with alamethicin at 20 µg/mL) in Tris‐HCl buffer (0.1 mol/L, pH 7.5), in the presence of 1 mmol/L EDTA, 5 mmol/L MgCl2, with or without 0.5%, 1%, or 2% BSA. The incubation (100 µL final volume with 0.5% DMSO) was started by adding an equal volume of UDPGA (5 mmol/L) in Tris‐HCl buffer (0.1 mol/L, pH 7.5). After 30 minutes incubation, the incubation mixtures were combined with 0.3 mL of an internal standard solution in acetonitrile with 1% formic acid, followed by membrane plate filtration. The filtrates were used for LC‐MS/MS analysis to quantify the formation of ataluren‐O‐1β‐acyl glucuronide. Detailed LC‐MS/MS conditions are summarized in LC‐MS/MS Analysis section. Ataluren acyl glucuronide formation rate after 30 minutes incubation was calculated using the amount of metabolite formed (pmol) divided by the protein amount in the incubation sample (0.0025 mg) and the incubation time (30 minutes). Ataluren glucuronidation kinetic parameters were determined with and without adjusting BSA binding by nonlinear regression (GraphPad Prism, 5version 5.04, GraphPad Software, Inc.) using Michaelis‐Menten equation which was the best fit compared with other models. The intrinsic clearance was calculated as CLint = Vmax/Km. In order to compare unbound intrinsic clearance by glucuronidation (CLint,u,UGT) in different tissues, CLint,u,UGT was expressed per gram of tissue by correcting the values for the microsomal protein yield, resulting in scaled CLint,u,UGT. Microsomal protein yields of 40.0, 12.8, and 20.6 mg protein/g tissue were used for hepatic, renal, and intestinal data, respectively. ^26\n(§2) The high‐throughput membrane ultrafiltration method ^27 was used to determine the fraction unbound in the incubation (n = 3). Incubation mixtures and procedures were essentially the same as the above except that UDPGA (5 mmol/L) was replaced with Tris‐HCl buffer (0.1 mol/L, pH 7.5). After 15 minutes incubation, aliquot was transferred to a Millipore Multiscreen Ultracel‐10 filter plate (10 kDa molecular mass cut off; EMD Millipore). The plate was centrifuged at 37°C and 3710 g. After 30 minutes centrifugation, aliquots of ultrafiltrates and incubation mixtures prior to ultrafiltration were quenched with an internal standard solution in acetonitrile, followed by membrane plate filtration. The filtrates were used for LC‐MS/MS analysis to quantify the concentration of ataluren. The same LC‐MS/MS conditions described above are summarized in LC‐MS/MS Analysis section. The free fraction = Cu/Cm, where Cu is the concentration of ataluren in the ultrafiltrate and Cm is the concentration of ataluren in the incubation system before centrifugation. Unbound Km (Km, u) was recalculated by applying Michaelis‐Menten equation using free ataluren concentrations after correcting BSA binding at each ataluren and BSA concentration level.\n(§3) Quantification of ataluren‐O‐1β‐acyl glucuronide formation was conducted on an Accela pump and a PAL autosampler equipped with a TSQ Quantum Ultra mass spectrometer (Thermo Fisher Scientific). A Waters Acquity BEH column (C18, 1.7 µm, 50 × 2.1 mm; Waters Cooperation) was used and maintained at 50°C. The mobile phases were 0.1% formic acid in water (A) and acetonitrile (B). The flow rate was 0.6 mL/min and gradient program was as follows: linear gradient from 0% B to 95% B in 0.5 minutes and hold isocratic at 95% B for 1 minute; linear gradient from 95% B to 0% B in 0.1 minutes and hold isocratic at 0% B for 0.4 minutes. TSQ Quantum Ultra mass spectrometer was equipped with a heated electrospray ionization source operated in negative‐ion mode with a vaporizer temperature of 350°C, capillary temperature of 380°C, and spray voltage of 3 kV. […]"}, "[4]": {"test_system": "UGT (glucuronidation)", "experiment": "Ataluren glucuronidation kinetics, human liver microsomes", "conditions": "human, pooled human liver microsomes, pH 7.5, HLM, read-out: CLint,u,UGT", "description": "as §1, §2, §3"}}, "note": "Read-outs that look alike come from different tables or passages of the source.", "data": [{"smiles": "O=C(O)c1cccc(-c2noc(-c3ccccc3F)n2)c1", "note": "[ataluren, Ataluren]", "values": [{"measurement": "Vehicle control %, Mean", "setting": "[1]; 4 µM", "result": 93.0, "unit": "%"}, {"measurement": "Vehicle control %, Mean", "setting": "[1]; 400 µM", "result": 67.6, "unit": "%"}, {"measurement": "Positive control %, Mean", "setting": "[2]; ataluren 4 µM", "result": 2.81, "unit": "%"}, {"measurement": "Vehicle control %, Mean", "setting": "[2]; ataluren 4 µM", "result": 111, "unit": "%"}, {"measurement": "Positive control %, Mean", "setting": "[2]; ataluren 40 µM", "result": 6.27, "unit": "%"}, {"measurement": "Vehicle control %, Mean", "setting": "[2]; ataluren 40 µM", "result": 123, "unit": "%"}, {"measurement": "Positive control %, Mean", "setting": "[2]; ataluren 400 µM", "result": 19.8, "unit": "%"}, {"measurement": "Vehicle control %, Mean", "setting": "[2]; ataluren 400 µM", "result": 170, "unit": "%"}, {"measurement": "CLint,u,UGT (scaled)", "setting": "[3]; 0% BSA", "result": "1.61 mL/min/g of tissue"}, {"measurement": "K m", "setting": "[3]; 0% BSA", "result": "29.9 ± 4.49", "unit": "µM"}, {"measurement": "K m, u", "setting": "[3]; 0% BSA", "result": "29.9 ± 4.49", "unit": "µM"}, {"measurement": "V max", "setting": "[3]; 0% BSA", "result": "1204 ± 49.0", "unit": "pmol/min/mg"}, {"measurement": "CLint,u,UGT (scaled)", "setting": "[3]; 0.5% BSA", "result": "13.0 mL/min/g of tissue"}, {"measurement": "K m", "setting": "[3]; 0.5% BSA", "result": "54.3 ± 9.42", "unit": "µM"}, {"measurement": "K m, u", "setting": "[3]; 0.5% BSA", "result": "4.50 ± 0.748", "unit": "µM"}, {"measurement": "V max", "setting": "[3]; 0.5% BSA", "result": "1465 ± 68.2", "unit": "pmol/min/mg"}, {"measurement": "CLint,u,UGT (scaled)", "setting": "[3]; 1% BSA", "result": "16.9 mL/min/g of tissue"}, {"measurement": "K m", "setting": "[3]; 1% BSA", "result": "67.9 ± 9.19", "unit": "µM"}, {"measurement": "K m, u", "setting": "[3]; 1% BSA", "result": "3.00 ± 0.415", "unit": "µM"}, {"measurement": "V max", "setting": "[3]; 1% BSA", "result": "1264 ± 53.5", "unit": "pmol/min/mg"}, {"measurement": "CLint,u,UGT (scaled)", "setting": "[3]; 2% BSA", "result": "12.5 mL/min/g of tissue"}, {"measurement": "K m", "setting": "[3]; 2% BSA", "result": "108 ± 10.7", "unit": "µM"}, {"measurement": "K m, u", "setting": "[3]; 2% BSA", "result": "2.83 ± 0.315", "unit": "µM"}, {"measurement": "V max", "setting": "[3]; 2% BSA", "result": "886 ± 34.7", "unit": "pmol/min/mg"}, {"measurement": "maximal effect of BSA on CLint,u (increase)", "setting": "[3]; human liver microsomes, with vs without BSA", "result": "~10", "unit": "fold"}, {"measurement": "fraction unbound at 15 min", "setting": "[3]; 0% BSA", "result": "1 ± 0.12"}, {"measurement": "fraction unbound at 15 min", "setting": "[3]; 0.5% BSA", "result": "0.093 ± 0.006"}, {"measurement": "fraction unbound at 15 min", "setting": "[3]; 1% BSA", "result": "0.05 ± 0.007"}, {"measurement": "fraction unbound at 15 min", "setting": "[3]; 2% BSA", "result": "0.03 ± 0.005"}, {"measurement": "microsomal CLint", "setting": "[4]; 0% BSA", "result": 40.3, "unit": "µL/min/mg"}, {"measurement": "microsomal CLint", "setting": "[4]; 0.5% BSA", "result": 326, "unit": "µL/min/mg"}, {"measurement": "microsomal CLint", "setting": "[4]; 1% BSA", "result": 421, "unit": "µL/min/mg"}, {"measurement": "microsomal CLint", "setting": "[4]; 2% BSA", "result": 313, "unit": "µL/min/mg"}]}]}
